Test results as given in the supplement of paper PMC10307832.

Tests used:
Assay in all cases: relative viability (nuclei count vs DMSO), 5 days (fraction); higher = more cells survive
JZL-184 + Trametinib = compound: C1CN(CCC1C(C2=CC3=C(C=C2)OCO3)(C4=CC5=C(C=C4)OCO5)O)C(=O)OC6=CC=C(C=C6)[N+](=O)[O-] [JZL-184] + CC(=O)Nc1cccc(-n2c(=O)n(C3CC3)c(=O)c3c(Nc4ccc(I)cc4F)n(C)c(=O)c(C)c32)c1 [Trametinib] (partner 0.02 µM)
In short: (§1)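 One day after seeding in 1536-well plates, lung cancer cell lines were dosed by pin tool. Dosing was either single-drug or a fixed anchor-drug dose plus five library-drug doses (not always all listed) in √10 steps. After 5 days, nuclei were stained in one fix-and-stain step and counted on 4× images, and relative viability is the nuclei count of treated wells over that of vehicle wells, given as the median of duplicate plates.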

JZL-184 + Luminespib = compound: C1CN(CCC1C(C2=CC3=C(C=C2)OCO3)(C4=CC5=C(C=C4)OCO5)O)C(=O)OC6=CC=C(C=C6)[N+](=O)[O-] [JZL-184] + CCNC(=O)c1noc(-c2cc(C(C)C)c(O)cc2O)c1-c1ccc(CN2CCOCC2)cc1 [Luminespib] (partner 0.01 µM)
In short: as §1

JZL-184 + OSI-027 = compound: C1CN(CCC1C(C2=CC3=C(C=C2)OCO3)(C4=CC5=C(C=C4)OCO5)O)C(=O)OC6=CC=C(C=C6)[N+](=O)[O-] [JZL-184] + COc1cccc2cc(-c3nc([C@H]4CC[C@H](C(=O)O)CC4)n4ncnc(N)c34)[nH]c12 [OSI-027] (partner 0.5 µM)
In short: as §1

JZL-184 + AZD7762 = compound: C1CN(CCC1C(C2=CC3=C(C=C2)OCO3)(C4=CC5=C(C=C4)OCO5)O)C(=O)OC6=CC=C(C=C6)[N+](=O)[O-] [JZL-184] + NC(=O)Nc1cc(-c2cccc(F)c2)sc1C(=O)N[C@H]1CCCNC1 [AZD7762] (partner 0.2 µM)
In short: as §1

JZL-184 + Vorinostat = compound: C1CN(CCC1C(C2=CC3=C(C=C2)OCO3)(C4=CC5=C(C=C4)OCO5)O)C(=O)OC6=CC=C(C=C6)[N+](=O)[O-] [JZL-184] + O=C(CCCCCCC(=O)Nc1ccccc1)NO [Vorinostat] (partner 1 µM)
In short: as §1

Row | Cell Line | relative viability (JZL-184 + Trametinib; first compound 0.04 µM) | relative viability (JZL-184 + Trametinib; first compound 0.4 µM) | relative viability (JZL-184 + Trametinib; first compound 1.265 µM) | relative viability (JZL-184 + Trametinib; first compound 4 µM) | relative viability (JZL-184 + Luminespib; first compound 0.04 µM) | relative viability (JZL-184 + Luminespib; first compound 0.4 µM) | relative viability (JZL-184 + Luminespib; first compound 1.265 µM) | relative viability (JZL-184 + Luminespib; first compound 4 µM) | relative viability (JZL-184 + OSI-027; first compound 0.04 µM) | relative viability (JZL-184 + OSI-027; first compound 0.4 µM) | relative viability (JZL-184 + OSI-027; first compound 1.265 µM) | relative viability (JZL-184 + OSI-027; first compound 4 µM) | relative viability (JZL-184 + AZD7762; first compound 0.04 µM) | relative viability (JZL-184 + AZD7762; first compound 0.4 µM) | relative viability (JZL-184 + AZD7762; first compound 1.265 µM) | relative viability (JZL-184 + AZD7762; first compound 4 µM) | relative viability (JZL-184 + Vorinostat; first compound 0.04 µM) | relative viability (JZL-184 + Vorinostat; first compound 0.4 µM) | relative viability (JZL-184 + Vorinostat; first compound 1.265 µM) | relative viability (JZL-184 + Vorinostat; first compound 4 µM)
1 | NCI-H838 | 0.65 | 0.569 | 0.543 | 0.477 | 0.287 | 0.281 | 0.274 | 0.258 | 0.434 | 0.368 | 0.441 | 0.389 | 1.01 | 0.896 | 0.929 | 0.915 | 0.791 | 0.72 | 0.738 | 0.636
2 | NCI-H1355 | 0.44 | 0.403 | 0.423 | 0.38 | 0.713 | 0.705 | 0.828 | 0.69 | 0.393 | 0.421 | 0.494 | 0.386 | 0.922 | 0.674 | 0.769 | 0.733 | 0.684 | 0.63 | 0.672 | 0.618
3 | NCI-H1395 | 1.09 | 0.996 | 1.01 | 0.875 | 0.63 | 0.788 | 0.675 | 0.738 | 0.623 | 0.519 | 0.69 | 0.581 | 0.429 | 0.413 | 0.396 | 0.403 | 0.651 | 0.621 | 0.811 | 0.683
4 | NCI-H1437 | 0.495 | 0.482 | 0.479 | 0.445 | 1.19 | 1.14 | 0.947 | 1.08 | 0.88 | 0.849 | 0.849 | 0.866 | 1.19 | 1.07 | 1.15 | 1.19 | 0.731 | 0.725 | 0.756 | 0.659
5 | NCI-H1651 | 0.848 | 0.872 | 0.787 | 0.848 | 0.894 | 0.797 | 0.902 | 0.765 | 0.684 | 0.664 | 0.855 | 0.794 | 0.427 | 0.455 | 0.456 | 0.474 | 0.593 | 0.36 | 0.5 | 0.554
6 | NCI-H1666 | 0.888 | 0.828 | 0.856 | 0.839 | 1.13 | 1.02 | 0.999 | 0.912 | 0.974 | 0.908 | 0.903 | 0.866 | 0.915 | 0.764 | 0.818 | 0.923 | 1.07 | 1.02 | 1.01 | 1.01
